From ChEMBL document CHEMBL4330100, “Selective estrogen receptor degraders with novel structural motifs induce regression in a tamoxifen-resistant breast cancer xenograft” (Bioorg Med Chem Lett, 2019)
Activity calls are given as the source filed them. The rule behind the calls is not given here.

What was measured:
MCF7 = experiment: Antiproliferative activity against human MCF7 cells assessed as reduction in cell proliferation measured after 5 days by Cell-titer-Glo assay; format: functional, cell-based; conditions: MCF7, 120 h
Rattus norvegicus [1] = experiment: In vivo antagonist activity at estrogen receptor in CD-IGS rat assessed as reduction in 17alpha-ethynylestradiol-stimulated increase in uterine wet weight at 1 mg/kg, po administered daily 15 mins before 17alpha-ethynylestradiol treatment for 3 days and measured 24 hrs post last dose relative to basal level; format: functional
Estrogen receptor = biological target: T1, Estrogen receptor (Homo sapiens, UniProt P03372); experiment: Induction of ERalpha degradation in human MCF7 cells in phenol red free RPMI medium containing 5% charcoal-stripped FBS incubated for 4 hrs by IRDye 800CW/DRAQ5 dye based in-cell Western assay
T1 sequence (P03372 whole entry): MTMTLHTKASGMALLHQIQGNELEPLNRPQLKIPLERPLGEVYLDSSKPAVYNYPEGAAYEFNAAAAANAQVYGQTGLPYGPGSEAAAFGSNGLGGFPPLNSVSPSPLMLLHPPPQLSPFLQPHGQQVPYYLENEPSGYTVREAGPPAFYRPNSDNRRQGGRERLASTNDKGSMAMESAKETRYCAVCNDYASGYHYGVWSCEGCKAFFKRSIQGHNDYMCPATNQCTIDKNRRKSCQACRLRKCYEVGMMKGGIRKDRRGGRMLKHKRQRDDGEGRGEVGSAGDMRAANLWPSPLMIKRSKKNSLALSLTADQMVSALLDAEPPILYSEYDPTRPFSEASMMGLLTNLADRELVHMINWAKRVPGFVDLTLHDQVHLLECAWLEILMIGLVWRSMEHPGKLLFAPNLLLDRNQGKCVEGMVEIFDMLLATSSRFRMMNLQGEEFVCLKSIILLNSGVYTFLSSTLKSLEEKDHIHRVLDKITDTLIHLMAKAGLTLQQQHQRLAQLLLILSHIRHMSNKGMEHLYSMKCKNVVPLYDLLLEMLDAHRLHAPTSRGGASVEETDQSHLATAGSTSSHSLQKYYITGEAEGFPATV

[2] = biological target: T2, Estrogen receptor (Homo sapiens) (UniProt P03372); experiment: Induction of ERalpha degradation in human MCF7 cells in phenol red free RPMI medium containing 5% charcoal-stripped FBS at 2 to 10 uM incubated for 4 hrs by IRDye 800CW/DRAQ5 dye based in-cell Western assay relative to fulvestrant
T2 sequence (whole entry): T1 sequence (P03372 whole entry)

[3] = Volume of distribution at steady state in CD-1 mouse at 3 mg/kg, iv; format: ADME, organism-based; conditions: in vivo; for Vd: CD-1, mouse, read-out: Vdss
[4] = Oral bioavailability in CD-1 mouse at 10 mg/kg; format: ADME, organism-based; conditions: in vivo; for bioavailability: CD-1, mouse
Homo sapiens = experiment: Antitumor activity against human TamR1 cells xenografted in nu/nu mouse assessed as tumor regression at 30 mg/kg, po administered daily for 4 weeks; format: functional, organism-based
[5] = Plasma clearance in CD-1 mouse at 3 mg/kg, iv; format: ADME, organism-based
[6] = AUC in CD-1 mouse at 10 mg/kg, po; format: ADME, organism-based; conditions: in vivo
[7] = Half life in CD-1 mouse at 3 mg/kg, iv; format: ADME, organism-based; conditions: in vivo; for half-life: CD-1, mouse
Rattus norvegicus [8] = experiment: In vivo antagonist activity at estrogen receptor in CD-IGS rat assessed as inhibition of estrogen-stimulated uterine growth at 1 mg/kg, po administered daily 15 mins before estrogen treatment for 3 days and measured 24 hrs post last dose relative to ARN-180; format: functional
[9] = Fraction unbound in 10% CD-1 mouse plasma at 10 uM measured after 20 to 24 hrs by equlibrium dialysis method; format: ADME, cell-free; conditions: 10% plasma
[10] = AUC in CD-1 mouse at 10 mg/kg, po administered at truncated timecourse (1, 4, 24 hrs); format: ADME, organism-based; conditions: in vivo
[11] = Half life in CD-1 mouse at 2 mg/kg, iv administered as cassette dose; format: ADME, organism-based; conditions: in vivo
[12] = Volume of distribution at steady state in CD-1 mouse at 2 mg/kg, iv administered as cassette dose; format: ADME, organism-based; conditions: in vivo, read-out: Vdss
[13] = Plasma clearance in CD-1 mouse at 2 mg/kg, iv administered as cassette dose; format: ADME, organism-based
[14] = Oral bioavailability in CD-1 mouse at 10 mg/kg administered at truncated timecourse (1, 4, 24 hrs); format: ADME, organism-based; conditions: in vivo

Structure (SMILES)	IC50 (MCF7)	EC50 (Estrogen receptor)	Efficacy [2]	Efficacy (Rattus norvegicus [8])	further results
CC/C(=C(/c1ccc(/C=C/C(=O)O)cc1)c1ccc(-c2nccs2)cc1)c1ccccc1	290 nM	83 nM	91%	–	–
CC/C(=C(/c1ccc(/C=C/C(=O)O)cc1)c1ccc2ocnc2c1)c1ccccc1	> 500 nM	460 nM	86%	–	–
CC/C(=C(/c1ccc(/C=C/C(=O)O)cc1)c1ccc2ncsc2c1)c1ccccc1	> 500 nM	240 nM	86%	–	–
CC/C(=C(/c1ccc(/C=C/C(=O)O)cc1)c1ccc2ccccc2c1)c1ccccc1	180 nM	57 nM	91%	–	–
CC/C(=C(/c1ccc(/C=C/C(=O)O)cc1)c1ccc2cncn2c1)c1ccccc1	> 500 nM	260 nM	86%	–	–
CC/C(=C(/c1ccc(/C=C/C(=O)O)cc1)c1ccc2nccn2c1)c1ccccc1	170 nM	75 nM	86%	–	–
CC/C(=C(/c1ccc(/C=C/C(=O)O)cc1)c1ccc(-n2ccnc2)cc1)c1ccccc1	380 nM	300 nM	89%	–	–
CC/C(=C(/c1ccc(/C=C/C(=O)O)cc1)c1ccc2c(cnn2C)c1)c1ccccc1	300 nM	140 nM	84%	–	–
CC/C(=C(/c1ccc(/C=C/C(=O)O)cc1)c1ccc2[nH]ncc2c1)c1ccc(F)cc1Cl [BRILANESTRANT]	–	–	–	–	half-life [7]: 4.6 h; fraction unbound at 10 µM [9]: 0.011
CC/C(=C(/c1ccc(/C=C/C(=O)O)cc1)c1ccn2nccc2c1)c1ccccc1	> 500 nM	350 nM	90%	–	–
CC/C(=C(\c1ccccc1)c1ccc(/C=C/C(=O)O)cc1)c1ccccc1	–	–	85%	–	–
CC/C(=C(/c1ccc(/C=C/C(=O)O)cc1)c1ccc2sc(C)nc2c1)c1ccccc1	> 500 nM	150 nM	88%	–	–
CC/C(=C(/c1ccc(/C=C/C(=O)O)cc1)c1ccc2sncc2c1)c1ccccc1	> 500 nM	200 nM	90%	–	–
CC/C(=C(/c1ccc(/C=C/C(=O)O)cc1)c1ccn2nncc2c1)c1ccccc1	> 500 nM	340 nM	86%	–	–
CC/C(=C(/c1ccc(/C=C/C(=O)O)cc1)c1ccc(N2CCN(C)CC2)cc1)c1ccccc1	220 nM	90 nM	85%	–	–
CC/C(=C(/c1ccc(/C=C/C(=O)O)cc1)c1ccc(N2CCCCC2)cc1)c1ccccc1	450 nM	190 nM	90%	–	–
CC/C(=C(/c1ccc(/C=C/C(=O)O)cc1)c1ccc(-c2cc[nH]n2)cc1)c1ccccc1	440 nM	99 nM	86%	–	–

The next lines start with results.

IC50 (MCF7)	EC50 (Estrogen receptor)	Efficacy [2]	Structure (SMILES)	Efficacy (Rattus norvegicus [8])	further results
6.9 nM	1.9 nM	–	O=C(O)/C=C/c1ccc(/C(=C(\c2ccc(C(F)(F)F)cc2Cl)C2CCC2)c2ccc(N3CCOCC3)cc2)cc1	–	Efficacy (Rattus norvegicus [1]): 93%
2.6 nM	1 nM	–	O=C(O)/C=C/c1ccc(/C(=C(\c2ccc(C(F)(F)F)cc2Cl)C2CCC2)c2ccc3scnc3c2)cc1	–	Efficacy (Rattus norvegicus [1]): 93%
0.9 nM	0.4 nM	–	COc1ccc(/C(=C(\c2ccc(/C=C/C(=O)O)cc2)c2ccc3scnc3c2)C2CCC2)c(Cl)c1	94%	Vd [3]: 0.3 L/kg; bioavailability [4]: 80%; Activity (Homo sapiens): Active; clearance [5]: 0.108 L/h/kg; AUC ([6]; CD-1, mouse, read-out: AUC): 75 µg·h/mL; half-life [7]: 3.2 h; fraction unbound at 10 µM [9]: 0.002
0.7 nM	0.3 nM	–	COc1ccc(/C(=C(\c2ccc(/C=C/C(=O)O)cc2)c2ccc3nccn3c2)C2CCC2)c(Cl)c1	93%	Vdss ([3]; mouse): 0.9 L/kg; F ([4]; mouse): 69%; Activity (Homo sapiens): inactive; AUC ([6]; mouse): 8.4 µg·h/mL; t1/2 ([7]; mouse): 1.2 h; fraction unbound at 10 µM [9]: 0.015
4.2 nM	0.8 nM	–	O=C(O)/C=C/c1ccc(/C(=C(\c2ccc(F)cc2Cl)C2CCC2)c2ccc(-c3cncs3)cc2)cc1	91%	–
0.9 nM	0.4 nM	–	N#Cc1cc(Cl)ccc1/C(=C(\c1ccc(/C=C/C(=O)O)cc1)c1ccc2scnc2c1)C1CCC1	91%	–
2.2 nM	0.7 nM	–	N#Cc1ccc(/C(=C(\c2ccc(/C=C/C(=O)O)cc2)c2ccc(-c3cn[nH]c3)cc2)C2CCC2)c(Cl)c1	–	Efficacy (Rattus norvegicus [1]): 94%
3 nM	0.7 nM	–	O=C(O)/C=C/c1ccc(/C(=C(\c2ccc(F)cc2Cl)C2CCC2)c2ccc3scnc3c2)cc1	91%	–
2.1 nM	0.6 nM	–	COc1ccc(/C(=C(\c2ccc(/C=C/C(=O)O)cc2)c2ccc(N3CCOCC3)cc2)C2CCC2)c(Cl)c1	92%	Vd [3]: 1.5 L/kg; bioavailability [4]: > 100%; Activity (Homo sapiens): Active; clearance [5]: 0.306 L/h/kg; AUC ([6]; CD-1, mouse, read-out: AUC): 40 µg·h/mL; half-life [7]: 2.9 h; fraction unbound at 10 µM [9]: 0.004
4.4 nM	1.5 nM	–	O=C(O)/C=C/c1ccc(/C(=C(\c2ccc(F)cc2Cl)C2CCC2)c2ccc3nccn3c2)cc1	–	Efficacy (Rattus norvegicus [1]): 90%
2.9 nM	1.1 nM	–	O=C(O)/C=C/c1ccc(/C(=C(\c2ncc(C(F)(F)F)cc2Cl)C2CCC2)c2ccc3scnc3c2)cc1	92%	–
4.4 nM	1.1 nM	–	N#Cc1cc(Cl)ccc1/C(=C(\c1ccc(/C=C/C(=O)O)cc1)c1ccc(-c2cn[nH]c2)cc1)C1CCC1	–	Efficacy (Rattus norvegicus [1]): 94%
1.8 nM	0.8 nM	–	COc1ccc(/C(=C(\c2ccc(/C=C/C(=O)O)cc2)c2ccc(-c3cncs3)cc2)C2CCC2)c(Cl)c1	93%	AUC at 24 h [10]: 3.8 µg·h/mL; fraction unbound at 10 µM [9]: 0.001
2.9 nM	1.1 nM	–	O=C(O)/C=C/c1ccc(/C(=C(\c2ccc(F)cc2Cl)C2CCC2)c2ccc(-c3cn[nH]c3)cc2)cc1	91%	–
5 nM	1.6 nM	–	O=C(O)/C=C/c1ccc(/C(=C(\c2ccc(F)cc2Cl)C2CCC2)c2ccc(N3CCOCC3)cc2)cc1	90%	–
5.1 nM	1.5 nM	–	COc1ccc(/C(=C(\c2ccc(/C=C/C(=O)O)cc2)c2ccc(-c3cn[nH]c3)cc2)C2CCC2)c(Cl)c1	93%	half-life [11]: 3 h; Vd [12]: 0.6 L/kg; AUC at 24 h [10]: 18 µg·h/mL; clearance [13]: 0.288 L/h/kg; fraction unbound at 10 µM [9]: 0.002; bioavailability [14]: 52%
1.4 nM	0.8 nM	–	N#Cc1ccc(/C(=C(\c2ccc(/C=C/C(=O)O)cc2)c2ccc3scnc3c2)C2CCC2)c(Cl)c1	92%	–
9.2 nM	1.7 nM	–	O=C(O)/C=C/c1ccc(/C(=C(\c2ccccc2)C2CCC2)c2ccc(-c3cncs3)cc2)cc1	–	Efficacy (Rattus norvegicus [1]): 89%
4.3 nM	1.9 nM	–	N#Cc1cc(Cl)ccc1/C(=C(\c1ccc(/C=C/C(=O)O)cc1)c1ccc(-c2cncs2)cc1)C1CCC1	–	Efficacy (Rattus norvegicus [1]): 94%
